The text below walks through data of patent publication US20260223859A1, “PLANT DISEASE CONTROL COMPOSITION COMPRISING CULTURE BROTH OF STREPTOMYCES SP. JCK-6141 STRAIN OR EXTRACT OF CULTURE BROTH OF STRAIN, PREPARATION METHOD THEREFOR AND PLANT DISEASE CONTROL METHOD” (priority 2020, published 2026).

Converted amounts (≈) assume the structure as drawn.

Assay [1] has as its system Rhizoctonia solani. The experiment in a line: In vivo control of rice sheath blight (RSB). The settings on record: rice cultivar Nakdong. Here is the method:
The control efficacy of Streptomyces sp. JCK-6141 strain against rice sheath blight (RSB) was examined in vivo. As an experimental plant, the rice cultivar Nakdong (Oryza sativa L.) was used.
One day before pathogen inoculation, the Nakdong rice plants were treated by soil drenching with 10 ml of each of the 3-fold and 9-fold dilutions of the Streptomyces sp. JCK-6141 strain culture in distilled water. After putting an appropriate amount of Nakdong rice bran treated with the dilutions was put into a 1-L culture bottle and sterilized, followed by evenly inoculating finely ground mycelial mass of cultured Rhizoctonia solani into the pots where the rice plants had been grown. After inoculation, incubation was carried out for 3 days in a humid chamber (25° C.) and then for 4 days in an incubator with a relative humidity of 80%. Examination was made of the onset of the disease. As a control, the synthetic chemical fungicide Flutolanil was used at 20 μg/ml or 50 μg/ml concentration.

The test system of a further assay is Puccinia recondite. The experiment in a line: In vivo control of wheat leaf rust. The settings on record: wheat cultivar Eunpa, 7 days after inoculation.
Assay [2] relates to Fusarium oxysporum f. sp. raphani. The experiment in a line: microbe, parasite or virus in culture. The settings on record: 24 hours at 25° C., read-out: MIC, F61. In kind it is cell-based.
In a further assay the test system is Curvularia lunata. The experiment in a line: microbe, parasite or virus in culture. It is filed as cell-based. The settings on record: 24 hours at 25° C., read-out: MIC, F61.
Another assay concerns Botryoshpaeria dothidea. Description: organism not typed. It is filed as cell-based. The settings on record: 24 hours at 25° C.; read-out: MIC, F61.
The next assay has as its system Gaeumannomyces graminis. Description: microbe, parasite or virus in culture. The settings on record: 24 hours at 25° C., read-out: MIC, F61. In kind it is cell-based.
Assay [3] relates to Fusarium oxysporum f. sp. cucumerinum. Description: microbe, parasite or virus in culture. It is filed as cell-based. The note with it: 24 hours at 25° C., read-out: MIC, F61.
In another assay the test system is Botryritis cinerea. Description: organism not typed. It is filed as cell-based. The settings on record: 24 hours at 25° C.; read-out: MIC, F61.
The test system of a further assay is Phytophthora cactorum. Description: microbe, parasite or virus in culture. The note with it: 24 hours at 25° C., read-out: MIC, F61. It is filed as cell-based.
A further assay deals with Phytophthora cambivora. The experiment in a line: microbe, parasite or virus in culture. In kind it is cell-based. The settings on record: 24 hours at 25° C., read-out: MIC, F61.
For a further assay, the system named is Phythium ultimum. The experiment in a line: organism not typed. The note with it: 24 hours at 25° C.; read-out: MIC, F61. In kind it is cell-based.
The subject of a further assay is Sclerotinia homoeocarpa. Description: microbe, parasite or virus in culture. It is filed as cell-based. The note with it: Clarireedia homoeocarpa; 24 hours at 25° C.; read-out: MIC, F61.
The subject of the next assay is Magnaporthiopsis poae. The experiment in a line: microbe, parasite or virus in culture. It is filed as cell-based. The note with it: 24 hours at 25° C., read-out: MIC, F61.
The next assay has as its system Colletotrichum horii. The experiment in a line: microbe, parasite or virus in culture. It is filed as cell-based. The settings on record: 24 hours at 25° C., read-out: MIC, F61.
The test system of the next assay is Phytophthora cinnamomi. Description: microbe, parasite or virus in culture. In kind it is cell-based. The note with it: 24 hours at 25° C., read-out: MIC, F61.
Assay [4] concerns Rhizoctonia solani. Description: microbe, parasite or virus in culture. In kind it is cell-based. The settings on record: 24 hours at 25° C., read-out: MIC, F61.
The subject of a further assay is Fusarium graminearum. The experiment in a line: microbe, parasite or virus in culture. It is filed as cell-based. The settings on record: 24 h, read-out: MIC, F61 (μg/ml).
In a further assay the test system is Valsa ceratosperma. The experiment in a line: microbe, parasite or virus in culture. It is filed as cell-based. The note with it: Cytospora ceratosperma; 24 hours at 25° C.; read-out: MIC, F61.
The test system of another assay is Magnapothe oryzae. Description: organism not typed. In kind it is cell-based. The note with it: 24 h, read-out: MIC, F61 (μg/ml).
The next assay concerns Endothia parasitica. The experiment in a line: microbe, parasite or virus in culture. It is filed as cell-based. The settings on record: Cryphonectria parasitica; 24 hours at 25° C.; read-out: MIC, F61.

`CC(C)Oc1cccc(NC(=O)c2ccccc2C(F)(F)F)c1` [Flutolanil]: the “RSB Control (%)” value with Rhizoctonia solani [1] (20 μg/ml) and with Rhizoctonia solani [1] (50 μg/ml) was 100.0 ± 0.0 a % each time. In addition, the “Wheat leaf rust control (%)” value amounted to 73.3 ± 6.7 b % in the assay with Puccinia recondite (20 μg/ml) and 100.0 ± 0.0 a % in the assay with Puccinia recondite (50 μg/ml).

In the case of `CCCCCC[C@@]1(OC(=O)CCC(=O)O)CC[C@]2(CC[C@H](C)[C@@H](C/C=C(C)/C=C/[C@H](O)[C@@H](C)/C=C/C(=O)O)O2)O[C@H]1/C=C/C(C)=C/C(=O)O` [F61, reveromycin E], the MIC was determined as 1.56 µg/mL (≈ 2.26 µM) in assay [2]; 0.78 µg/mL (≈ 1.13 µM) with Curvularia lunata; 0.098 µg/mL (≈ 0.142 µM) in the assay with Botryoshpaeria dothidea; 3.12 µg/mL (≈ 4.54 µM) in the assay with Gaeumannomyces graminis; 1.56 µg/mL (≈ 2.26 µM) in [3]; 1.56 µg/mL (≈ 2.26 µM) in the assay on Botryritis cinerea. Besides, the MIC with Phytophthora cactorum came out at 0.195 µg/mL (≈ 0.283 µM); with Phytophthora cambivora it was 0.195 µg/mL (≈ 0.283 µM); with Phythium ultimum, 1.56 µg/mL (≈ 2.26 µM); in the assay on Sclerotinia homoeocarpa, 0.195 µg/mL (≈ 0.283 µM); with Magnaporthiopsis poae, 0.0244 µg/mL (≈ 0.0354 µM); with Colletotrichum horii it was 0.049 µg/mL (≈ 0.0711 µM). In addition, the MIC in the assay with Phytophthora cinnamomi was determined as 0.39 µg/mL (≈ 0.566 µM); in the assay on Rhizoctonia solani [4], 1.56 µg/mL (≈ 2.26 µM); in the assay on Fusarium graminearum, 0.195 µg/mL (≈ 0.283 µM); in the assay on Valsa ceratosperma, 0.78 µg/mL (≈ 1.13 µM); in the assay on Magnapothe oryzae it was 0.78 µg/mL (≈ 1.13 µM); in the assay with Endothia parasitica, 1.56 µg/mL (≈ 2.26 µM).
